{"source": "ChEMBL document CHEMBL5030535", "about": "“Conjugates Derived from Lapatinib Derivatives with Cancer Cell Stemness Inhibitors Effectively Reversed Drug Resistance in Triple-Negative Breast Cancer” (J Med Chem, 2021)", "key": {"MDA-MB-231 [1]": {"test_system": "MDA-MB-231", "assay": "Antiproliferative activity against human drug tolerant MDA-MB-231/lapatinib cells assessed as inhibition of cell growth in measured after 72 hrs by MTT assay", "format": "functional, cell-based", "conditions": "MDA-MB-231, 72 h"}, "MDA-MB-231 [2]": {"test_system": "MDA-MB-231", "assay": "Antiproliferative activity against human MDA-MB-231 cells assessed as inhibition of cell growth measured after 72 hrs by MTT assay", "format": "functional, cell-based", "conditions": "MDA-MB-231, 72 h"}, "MCF7": {"test_system": "MCF7", "assay": "Antiproliferative activity against human MCF7 cells assessed as inhibition of cell growth measured after 72 hrs by MTT assay", "format": "functional, cell-based", "conditions": "MCF7, 72 h"}, "[3]": {"assay": "Resistant factor, ratio of IC50 for antiproliferative activity against drug-tolerant human MDA-MB-231 cells to IC50 for human MDA-MB-231 cells", "format": "functional"}, "HUVEC": {"test_system": "HUVEC", "assay": "Antiproliferative activity against human HUVEC cells assessed as inhibition of cell growth in measured after 72 hrs by MTT assay", "format": "cell-based"}, "[4]": {"biological_target": "T1, Aldehyde dehydrogenase 1A1 (Homo sapiens, UniProt P00352)", "T1 sequence (P00352 whole entry)": "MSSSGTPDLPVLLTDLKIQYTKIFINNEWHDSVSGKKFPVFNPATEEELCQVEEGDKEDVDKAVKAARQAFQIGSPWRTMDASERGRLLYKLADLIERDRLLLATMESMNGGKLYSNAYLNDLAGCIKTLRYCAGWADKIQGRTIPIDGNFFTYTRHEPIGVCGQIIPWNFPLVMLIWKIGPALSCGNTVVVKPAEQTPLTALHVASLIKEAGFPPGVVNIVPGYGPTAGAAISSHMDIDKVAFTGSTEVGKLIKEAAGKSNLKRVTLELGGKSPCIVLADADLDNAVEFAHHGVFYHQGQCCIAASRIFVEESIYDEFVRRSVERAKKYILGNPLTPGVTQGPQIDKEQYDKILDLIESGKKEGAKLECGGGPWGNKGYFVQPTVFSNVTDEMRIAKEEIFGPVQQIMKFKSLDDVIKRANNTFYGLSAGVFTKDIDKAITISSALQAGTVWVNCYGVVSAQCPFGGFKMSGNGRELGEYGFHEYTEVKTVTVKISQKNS", "assay": "Inhibition of ALDH1A1 in human drug-tolerant MDA-MB-231/lapatinib cells assessed as after 24 hrs"}, "MDA-MB-231 [5]": {"test_system": "MDA-MB-231", "assay": "Inhibition of Wnt/beta-Catenin signaling in drug-tolerant human MDA-MB-231/lapatinib cells assessed as reduction in p-GSK3beta level at 20 uM incubated for 24 hrs by Western blot analysis"}, "MDA-MB-231 [6]": {"test_system": "MDA-MB-231", "assay": "Antiproliferative activity against drug-tolerant human MDA-MB-231/lapatinib cells assessed as CD44-positive cells measured after 24 hrs by MTT assay", "format": "functional, cell-based", "conditions": "MDA-MB-231, 24 h"}, "MDA-MB-231 [7]": {"test_system": "MDA-MB-231", "assay": "Inhibition of cell migration in human drug-tolerant MDA-MB-231/lapatinib cells at 20 uM", "format": "functional"}, "MDA-MB-231 [8]": {"test_system": "MDA-MB-231", "assay": "Inhibition of Wnt/beta-Catenin signaling in drug-tolerant human MDA-MB-231/lapatinib cells assessed as reduction in beta-catenin level at 20 uM incubated for 24 hrs by Western blot analysis"}, "MDA-MB-231 [9]": {"test_system": "MDA-MB-231", "assay": "Antiproliferative activity against drug-tolerant human MDA-MB-231/lapatinib cells assessed as CD44+/CD24- cells measured at 20 uM after 24 hrs by MTT assay", "format": "functional"}}, "note": "The source made the active and inactive calls. The rule behind the calls is not given here.", "data": [{"smiles": "CS(=O)(=O)CCN(Cc1ccc(-c2ccc3ncnc(Nc4ccc(OCc5cccc(F)c5)c(Cl)c4)c3c2)o1)C(=O)CCCC(=O)OCCN1CCN(CCCN2c3ccccc3Sc3ccc(Cl)cc32)CC1", "values": [{"measurement": "IC50", "setting": "MDA-MB-231 [1]", "value": 5.74, "unit": "µM"}, {"measurement": "IC50", "setting": "MDA-MB-231 [2]", "value": 4.51, "unit": "µM"}, {"measurement": "IC50", "setting": "MCF7", "value": 7.38, "unit": "µM"}, {"measurement": "Ratio IC50", "setting": "[3]", "value": 1.27}, {"measurement": "IC50", "setting": "HUVEC", "value": 100, "unit": "µM"}]}, {"smiles": "OCCN1CCN(CCCN2c3ccccc3Sc3ccc(Cl)cc32)CC1", "note": "[PERPHENAZINE]", "values": [{"measurement": "IC50", "setting": "MDA-MB-231 [1]", "value": 31.8, "unit": "µM"}, {"measurement": "IC50", "setting": "MDA-MB-231 [2]", "value": 30.4, "unit": "µM"}, {"measurement": "IC50", "setting": "MCF7", "value": 35.8, "unit": "µM"}, {"measurement": "Ratio IC50", "setting": "[3]", "value": 1.05}, {"measurement": "IC50", "setting": "[4]", "value": 0.524, "unit": "µM"}, {"measurement": "IC50", "setting": "HUVEC", "value": 97.8, "unit": "µM"}]}, {"smiles": "CS(=O)(=O)CCNCc1ccc(-c2ccc3ncnc(Nc4ccc(OCc5cccc(F)c5)c(Cl)c4)c3c2)o1", "note": "[LAPATINIB]", "values": [{"measurement": "inhibition", "setting": "MDA-MB-231 [5]", "value": "Active"}, {"measurement": "IC50", "setting": "MDA-MB-231 [6]", "value": 30.8, "unit": "µM"}, {"measurement": "IC50", "setting": "MDA-MB-231 [1]", "value": 29.4, "unit": "µM"}, {"measurement": "IC50", "setting": "MDA-MB-231 [2]", "value": 5.86, "unit": "µM"}, {"measurement": "IC50", "setting": "MCF7", "value": 12.6, "unit": "µM"}, {"measurement": "inhibition at 20 µM", "setting": "MDA-MB-231 [7]", "value": 52.6, "unit": "%"}, {"measurement": "inhibition", "setting": "MDA-MB-231 [8]", "value": "Active"}, {"measurement": "IC50", "setting": "HUVEC", "value": 47.3, "unit": "µM"}, {"measurement": "inhibition at 20 µM", "setting": "MDA-MB-231 [9]", "value": 15.7, "unit": "%"}]}, {"smiles": "CC(=O)c1cc2c(o1)C(=O)c1ccccc1C2=O", "note": "[NAPABUCASIN]", "values": [{"measurement": "IC50", "setting": "MDA-MB-231 [1]", "value": 9.68, "unit": "µM"}, {"measurement": "IC50", "setting": "MDA-MB-231 [2]", "value": 11, "unit": "µM"}, {"measurement": "IC50", "setting": "MCF7", "value": 11.4, "unit": "µM"}, {"measurement": "Ratio IC50", "setting": "[3]", "value": 0.88}, {"measurement": "IC50", "setting": "[4]", "value": 0.425, "unit": "µM"}, {"measurement": "IC50", "setting": "HUVEC", "value": 41.3, "unit": "µM"}]}]}
